Source: patent publication EP0565593B1, “REDUCING PESTICIDAL INTERACTIONS IN CROPS” (priority 1990, dated 1992)
Values joined by “and” are separate entries in the source; they are usually repeats but may differ in a detail not shown here. Equal entries are not always repeated. Where two headings read alike, the source gives them in different places.

Key:
[1] = test system: Corn
[2] = test system: Corn; test: Greenhouse test Procedure VII: biocide and antidote in furrow, herbicide POE (Examples 39-42, 48-50, 56-58; Tables 38-41, 47-49, 55-57); type: in vivo
Outline: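 Corn seed was planted in greenhouse pots, with COUNTER 15G insecticide plus antidote granules applied in-furrow (e.g. 1.1 + 0.37 mg a.i./cm, or 227 g/305 m with acetone-applied safeners). About five days later, herbicides in water with 0.25% v/v X-77 were track-sprayed post-emergence at 187 L/ha. Plant response was scored eight days afterward, with two to four replicates.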

[3] = DIAZINON + Herbicides 1, 21, 18, Example 53
[4] = malathion + Herbicides 1, 21, 18, Example 54
[5] = COUNTER 15G + BEACON/co-herbicide combinations, Example 56
[6] = in-furrow antidote, COUNTER 15G + sulfonamide herbicides, Table 41
[7] = MON-12000 + OP insecticides, Examples 20-23
[8] = XRD-498 + OP insecticides, Examples 24-27
[9] = Antidote + Biocide No. 1 in furrow, Herbicide No. 1 0.14 Kg/Ha POE, 8 days after POE
[10] = Antidote + Biocide No. 1 in furrow, Herbicide No. 4 0.17 Kg/Ha POE, 8 days after POE
[11] = Antidote + Biocide No. 1 in furrow, Herbicide No. 5 0.07 Kg/Ha POE, 8 days after POE
[12] = Antidote + Biocide No. 1 in furrow, Herbicide No. 6 0.01 Kg/Ha POE
[13] = Antidote + Biocide No. 1 in furrow, Herbicide No. 7 0.56 Kg/Ha POE, 8 days after POE
[14] = Antidote + Biocide No. 1 in furrow, Herbicide No. 9 0.009 Kg/Ha POE
[15] = Antidote + Biocide No. 1 in furrow, Herbicide No. 10 0.002 Kg/Ha POE, 8 days after POE
[16] = Antidote + Biocide No. 1 in furrow, Herbicide No. 15 0.0044 Kg/Ha POE, 8 days after POE
[17] = Antidote + Biocide No. 1 in furrow, Herbicide No. 16 0.01 Kg/Ha POE
[18] = Antidote + Biocide No. 1 in furrow, Herbicide No. 18 0.0044 Kg/Ha POE
[19] = Antidote + Biocide No. 1 in furrow, Herbicide No. 19 0.28 Kg/Ha POE
[20] = Antidote + Biocide No. 1 in furrow, Herbicide No. 21 0.14 Kg/Ha POE
[21] = Antidote + Biocide No. 1 in furrow, Herbicide No. 23 0.0006 Kg/Ha POE

SMILES	safening [1, 4]	corn injury [2, 5]	corn injury [2, 6]	safening activity [1, 8]	% Inhibition Corn [2, 9]	% Inhibition Corn [2, 10]	% Inhibition Corn [2, 11]	% Inhibition Corn [2, 12]	% Inhibition Corn [2, 13]	% Inhibition Corn [2, 14]	% Inhibition Corn [2, 15]	% Inhibition Corn [2, 16]	% Inhibition Corn [2, 17]	% Inhibition Corn [2, 18]	% Inhibition Corn [2, 19]	% Inhibition Corn [2, 20]	% Inhibition Corn [2, 21]	further results
COC(=O)c1c(Cl)nn(C)c1S(=O)(=O)NC(=O)Nc1nc(OC)cc(OC)n1 [Herbicide No. 1, N-[(4,6-dimethoxypyrimidin-2-yl)aminocarbonyl]-3-chloro-4-methoxycarbonyl-5-sulfonamide, reference compound]																		% Inhibition Corn ([1]; Herb. […], PPI, 13 days after planting): 70%; % Inhibition Corn ([1]; Herbicide No. 1 0.0175 Kg/Ha PPI alone, Table 19): 5%; % Inhibition Corn ([1]; Herbicide No. 1 0.0175 Kg/Ha PPI alone, Table 20): 0%; % Inhibition Corn ([1]; Herbicide No. 1 0.0175 Kg/Ha PPI alone, Table 21): 0%; % Inhibition Corn ([1]; Herbicide No. 1 0.0175 Kg/Ha PPI alone, Table 22): 0%; corn injury ([1]; MON-12000 0.14 kg/ha with the OP insecticides at 8.96 kg/ha): 45-50%; corn injury ([1]; MON-12000 0.14 kg/ha without insecticide, Examples 20-23): 0-5%; % Inhibition Corn ([1]; Table 53, Herbicide No. 1, rate printed as '-', where applied Biocide No. 7 8.96 kg/Ha and antidote 4.48 Kg/Ha, all PPI, observed 13 days after treatment): 5%; % Inhibition Corn ([1]; Table 54, Herbicide No. 1, rate printed as '-', where applied Biocide No. 6 8.96 kg/Ha and antidote 4.48 Kg/Ha, all PPI, observed 14 days after PPI initiation): 5%; % Inhibition Corn ([1]; in vivo): 50% and 45%
COC(=O)COC(c1ccccc1)c1ccccc1 [Antidote No. 12, Acetic acid, (diphenylmethoxy)-, methyl ester]	moderate to high degrees of safening	reduced corn injury	significantly reduced															safening [1, 3]: Effective safening; safening of corn injury ([2]; COUNTER 15G + sulfonamide herbicides POE, Table 41): 92-100%; safening effects ([2]; COUNTER 15G in furrow, POE sulfonylurea herbicides, Tables 38, 39): highest and most consistent safening effects; safener efficacy ([2]; COUNTER + PURSUIT/co-herbicide tank mixtures, Example 58): most efficacious safener; antidote efficacy ([2]; imidazolinone herbicides + COUNTER 15G, Table 40): most efficacious antidote
COC(=O)COC(c1ccccc1)c1ccccc1 [compound 12]				Safening activity was observed	0%	0%	0%	0%	5%	0%	5%	0%	15%	10%	0%	5%	5%	safening activity [1, 7]: Safening activity was observed; % Inhibition Corn ([1]; […], PPI, 14 days after PPI (Table 34)): 25%; reducing corn injury, comparison ([1]; in vivo): superior to No. 28
O=C(OCc1ccccc1)c1sc(Cl)nc1C(F)(F)F [Antidote No. 7, 5-Thiazolecarboxylic acid, 2-chloro-4-(trifluoromethyl)-, (phenylmethyl) ester]	moderate to high degrees of safening	reduced corn injury	significantly reduced															
N#CCOc1ccc(Cl)c2cccnc12 [compound 33]	moderate to high degrees of safening			Safening activity was observed	0%	5%	30%	20%	10%	5%	5%	15%	30%	10%	10%	20%	15%	safening activity [1, 7]: Safening activity was observed
CC1(C)OC(c2ccco2)CN1C(=O)C(Cl)Cl (stereo not drawn) [compound 1]				Safening activity was observed	15%	10%	15%	15%	10%	10%	15%	10%	20%	15%	20%	20%	20%	% Inhibition Corn ([1]; […], PPI, 13 days after PPI (Table 31)): 25%; reducing corn injury, comparison ([1]; in vivo): superior to No. 28; % Inhibition Corn ([2]; C (COUNTER) + antidote in furrow, C:A Ratio 20, ACCENT 0.56 Kg/Ha POE): 10%; % Inhibition Corn ([2]; C (COUNTER) + antidote in furrow, C:A Ratio 20, BEACON 0.28 Kg/Ha POE): 5%; % Inhibition Corn ([2]; C (COUNTER) + antidote in furrow, C:A Ratio 40, ACCENT 0.56 Kg/Ha POE): 10%; % Inhibition Corn ([2]; C (COUNTER) + antidote in furrow, C:A Ratio 40, BEACON 0.28 Kg/Ha POE): 5%; % Inhibition Corn ([2]; C (COUNTER) + antidote in furrow, C:A Ratio 80, ACCENT 0.56 Kg/Ha POE): 10%; % Inhibition Corn ([2]; C (COUNTER) + antidote in furrow, C:A Ratio 80, BEACON 0.28 Kg/Ha POE): 10%; % Inhibition Corn ([2]; C (COUNTER) + antidote in furrow, C:A Ratio 160, ACCENT 0.56 Kg/Ha POE): 15%; % Inhibition Corn ([2]; C (COUNTER) + antidote in furrow, C:A Ratio 160, BEACON 0.28 Kg/Ha POE): 15%; % Inhibition Corn ([2]; Herbicide No. 1 0.14 Kg/Ha POE + Biocide No. 1 in furrow, no antidote, 8 days after POE): 35%; % Inhibition Corn ([2]; Herbicide No. 1 0.14 Kg/Ha POE alone, 8 days after POE): 0%; % Corn Inhibition C:A Ratios 5 ([2]; Herbicide No. 8 0.28 Kg/Ha POE + COUNTER 15G 227 g/305 m + antidote in furrow, C:A ratio 5): 3%; % Corn Inhibition C:A Ratios 10 ([2]; Herbicide No. 8 0.28 Kg/Ha POE + COUNTER 15G 227 g/305 m + antidote in furrow, C:A ratio 10): 3%; % Corn Inhibition C:A Ratios 20 ([2]; Herbicide No. 8 0.28 Kg/Ha POE + COUNTER 15G 227 g/305 m + antidote in furrow, C:A ratio 20): 0%; % Corn Inhibition C:A Ratios 40 ([2]; Herbicide No. 8 0.28 Kg/Ha POE + COUNTER 15G 227 g/305 m + antidote in furrow, C:A ratio 40): 0%; % Corn Inhibition C:A Ratios 80 ([2]; Herbicide No. 8 0.28 Kg/Ha POE + COUNTER 15G 227 g/305 m + antidote in furrow, C:A ratio 80): 3%; % Corn Inhibition C:A Ratios 160 ([2]; Herbicide No. 8 0.28 Kg/Ha POE + COUNTER 15G 227 g/305 m + antidote in furrow, C:A ratio 160): 13%
CC1(C)OC(c2ccco2)CN1C(=O)C(Cl)Cl (stereo not drawn) [Antidote No. 1, Oxazolidine, 3-(dichloroacetyl)-2,2-dimethyl-5-(2-furanyl)-]		reduced corn injury	significantly reduced															safening [1, 3]: Effective safening; safening, comparison ([2]; COUNTER/ACCENT, 160 ratio, Example 50): more effective than MON-7400
